Source: patent US10993439B2, “Mesoionic imidazopyridines as insecticides” (BAYER AKTIENGESELLSCHAFT, priority 2017, dated 2021)

What was measured:
[1] = log P by HPLC on reversed-phase column (EEC directive 79/831 Annex V.A8); type: physicochemical; conditions: reversed-phase column (C18), 43° C., calibration with unbranched alkan-2-ones
Experimental: The log P values reported in the tables and preparation examples above were determined in accordance with EEC directive 79/831 Annex V.A8 by HPLC (High Performance Liquid Chromatography) using a reversed-phase column (C18). Temperature 43° C. The calibration is effected with unbranched alkan-2-ones (having 3 to 16 carbon atoms), for which the log P values are known.

Myzus persicae [2] = experiment: Myzus persicae oral test; type: in vivo; conditions: application rate 4 ppm; mixed population of green peach aphid; after 5 days
Experimental: Solvent: 100 parts by weight of acetone
The plates are then sealed with parafilm which can be pierced by a mixed population of the green peach aphid (Myzus persicae) located in a second microtiter plate in order to take up the solution.
(§1) After 5 days, the efficacy in % is determined. 100% means that all the aphids have been killed; 0% means that none of the aphids have been killed.

Myzus persicae [3] = experiment: Myzus persicae spray test; type: in vivo; conditions: application rate 500 g/ha; Chinese cabbage leaf discs, all stages of green peach aphid; after 5 days
Experimental: (§2) Solvents: 78 parts by weight of acetone • • 1.5 parts by weight of dimethylformamide
(§3) Emulsifier: alkylaryl polyglycol ether
(§4) To produce a suitable preparation of active compound, 1 part by weight of active compound is dissolved using the stated parts by weight of solvent and made up with water containing an emulsifier concentration of 1000 ppm until the desired concentration is attained. To produce further test concentrations, the preparation is diluted with emulsifier-containing water.
Discs of Chinese cabbage leaves (Brassica pekinensis) infested by all stages of the green peach aphid (Myzus persicae) are sprayed with an active compound preparation of the desired concentration.
as §1

Ctenocephalides felis = Ctenocephalides felis in vitro contact test with adult cat fleas; type: in vivo; conditions: application rate 5 μg/cm^2 (=500 g of ai/ha), after 48 h
Experimental: For the coating of the test tubes, 9 mg of active compound are first dissolved in 1 ml of acetone p.a. and then diluted to the desired concentration with acetone p.a. 250 μl of the solution are distributed homogeneously on the inner walls and the base of a 25 ml test tube by turning and rocking on an orbital shaker (rocking rotation at 30 rpm for 2 h). With 900 ppm active compound solution and internal surface 44.7 cm^2, given homogeneous distribution, an area-based dose of 5 μg/cm^2 is achieved.
After the solvent has evaporated off, the tubes are populated with 5-10 adult cat fleas (Ctenocephalides felis), sealed with a perforated plastic lid and incubated in a horizontal position at room temperature and ambient humidity. After 48 h, efficacy is determined. To this end, the tubes are stood upright and the fleas are knocked to the base of the tube. Fleas which remain motionless at the base or are moved in an uncoordinated manner are considered to be dead or moribund.
100% efficacy means that all the fleas were dead or moribund. 0% efficacy means that no fleas were harmed.

Diabrotica balteata = Diabrotica balteata spray test; type: in vivo; conditions: application rate 160 μg/well; beetle larvae on germinated wheat grains; after 7 days
Experimental: as §2, §3, §4
Preswollen wheat grains (Triticum aestivum) are incubated in a multiwell plate filled with agar and a little water for one day (5 seed grains per well). The germinated wheat grains are sprayed with an active compound preparation of the desired concentration. Subsequently, each well is infested with 10-20 Diabrotica balteata beetle larvae.
After 7 days, the efficacy in % is determined. 100% means that all wheat plants have grown as in the untreated non-infested control; 0% means that no wheat plant has grown.

## COC(=O)c1c([O-])n(CCC#N)c2cccc[n+]12 [1-(2-cyanoethyl)-3-methoxycarbonylimidazo[1,2-a]pyridin-4-ium-2-olate]
[1]
  chromatographic logP: 0.39

## COC(=O)c1c([O-])n(CC(F)(F)F)c2cccc[n+]12 [3-methoxycarbonyl-1-(2,2,2-trifluoroethyl)imidazo[1,2-a]pyridin-4-ium-2-olate]
[1]
  chromatographic logP: 1.01

## N#CCCn1c([O-])c(C(=O)c2cccc(C(F)(F)F)c2)[n+]2ccccc12 [I-004, 1-(2-Cyanoethyl)-3-[3-(trifluoromethyl)benzoyl]imidazo[1,2-a]pyridin-4-ium-2-olate]
Myzus persicae [2]
  efficacy (aphids killed): 100%
[1]
  chromatographic logP: 1.35

## N#CCCn1c([O-])c(C(=O)Nc2c(Cl)cccc2Cl)[n+]2ccccc12 [I-016, 1-(2-Cyanoethyl)-3-[(2,6-dichlorophenyl)carbamoyl]imidazo[1,2-a]pyridin-4-ium-2-olate]
Myzus persicae [3]
  efficacy (aphids killed): 100%
Ctenocephalides felis
  efficacy (fleas dead or moribund): 100%
[1]
  chromatographic logP: 1.81

## Cc1ccc[n+]2c(C(=O)C(F)(F)F)c([O-])n(CCC#N)c12 [I-027, 1-(2-Cyanoethyl)-8-methyl-3-(2,2,2-trifluoroacetyl)imidazo[1,2-a]pyridin-4-ium-2-olate]
[1]
  chromatographic logP: 1.35

## O=C(c1c([O-])n(CC(F)(F)F)c2cccc[n+]12)C(F)(F)F [I-047, 3-(2,2,2-trifluoroacetyl)-1-(2,2,2-trifluoroethyl)imidazo[1,2-a]pyridin-4-ium-2-olate]
Diabrotica balteata
  efficacy (wheat plants grown as in untreated non-infested control): 100%
Ctenocephalides felis
  efficacy (fleas dead or moribund): 80%
[1]
  chromatographic logP: 1.79

## COC(=O)C(=O)c1c([O-])n(CC(F)(F)F)c2cccc[n+]12 [I-051, 3-(2-Methoxy-2-oxoacetyl)-1-(2,2,2-trifluoroethyl)imidazo[1,2-a]pyridin-4-ium-2-olate]
Myzus persicae [2]
  efficacy (aphids killed): 100%
[1]
  chromatographic logP: 1.18

## N#CCCn1c([O-])c(C(=O)CCl)[n+]2ccccc12 [I-084, 3-(2-Chloroacetyl)-1-(2-cyanoethyl)imidazo[1,2-a]pyridin-4-ium-2-olate]
[1]
  chromatographic logP: 0.8

## CC1(OC(=O)C(=O)c2c([O-])n(CCC#N)c3cccc[n+]23)CC1 [I-089, 1-(2-Cyanoethyl)-3-[2-(1-methylcyclopropoxy)-2-oxo-acetyl]imidazo[1,2-a]pyridin-4-ium-2-olate]
Myzus persicae [3]
  efficacy (aphids killed): 90%
[1]
  chromatographic logP: 1.33

## CO/N=C/C(=O)c1c([O-])n(CCC#N)c2cccc[n+]12 [I-094, 1-(2-Cyanoethyl)-3-[(2E)-2-methoxyiminoacetyl]imidazo[1,2-a]pyridin-4-ium-2-olate]
Myzus persicae [2]
  efficacy (aphids killed): 100%
[1]
  chromatographic logP: 0.73

## Cc1ccc[n+]2c(C(=O)CCl)c([O-])n(CCC#N)c12 [I-095, 3-(2-Chloroacetyl)-1-(2-cyanoethyl)-8-methyl-imidazo[1,2-a]pyridin-4-ium-2-olate]
[1]
  chromatographic logP: 0.8
